Where two headings read alike, the source gives them in different places.
Experiments:
[1] = system: Serotonin-Induced Smooth Muscle Contractions (rabbit thoracic aorta); experiment: Inhibition of Serotonin-Induced Smooth Muscle Contractions (isolated thoracic aorta strips); format: cell-based; conditions: concentration shifting the serotonin dose curve 10x to the right, 10 min preincubation, read-out: 5-HT-Induced Smooth Muscle Contraction DR10
Description: Inhibition of Serotonin-Induced Smooth Muscle Contractions
The test objects of this Example were canines and rabbits. Rabbits were sacrificed by T-61 injection and the thoracic aorta was removed immediately. The aorta was placed in warmed, oxygenated Krebs-Henseleit buffer. After the tissue was cleaned, a 2-3 mm wide strip was cut helically from each aorta. A strip of approximately 5 cm was suspended in Krebs-Henseleit buffer at 37° C. in a 25 ml tissue bath and the tissues equilibrated at an initial resting tension of 4 g for 90-120 minutes. An initial serotonin dose curve, 0.01-10 μM was then done on each tissue, followed by a 60 minute washout and reequilibration. The test drug was then added for a 10 minute preincubation and another serotonin dose curve was done using 0.01-100 μM.
Results are expressed as DR10 values. This is the concentration of the compound required to shift the serotonin dose curve 10x to the right, i.e., the concentration of antagonist at which the concentration of serotonin required for 50% maximal contraction is increased ten-fold.

5HT2 [2] = biological target: T1, 5HT2 (Rattus norvegicus, UniProt P14842); experiment: 5HT2 Blockade in vivo (antagonism of 5HT induced pressor responses); parameters: Spontaneously hypertensive rats were anesthetized with sodium pentobarbital; from tissue; host or cells: whole animal: anesthetized spontaneously hypertensive rats (vasculature); species or system spontaneously hypertensive rats; conditions: for 5-HT-Induced Pressor Response ED50: anesthetized SHR, 5HT 100 μg/kg i.v., cumulative doses of antagonist; for ED50: rat, iv, read-out: 5-HT-Induced Pressor Response ED50
T1 sequence (P14842 whole entry): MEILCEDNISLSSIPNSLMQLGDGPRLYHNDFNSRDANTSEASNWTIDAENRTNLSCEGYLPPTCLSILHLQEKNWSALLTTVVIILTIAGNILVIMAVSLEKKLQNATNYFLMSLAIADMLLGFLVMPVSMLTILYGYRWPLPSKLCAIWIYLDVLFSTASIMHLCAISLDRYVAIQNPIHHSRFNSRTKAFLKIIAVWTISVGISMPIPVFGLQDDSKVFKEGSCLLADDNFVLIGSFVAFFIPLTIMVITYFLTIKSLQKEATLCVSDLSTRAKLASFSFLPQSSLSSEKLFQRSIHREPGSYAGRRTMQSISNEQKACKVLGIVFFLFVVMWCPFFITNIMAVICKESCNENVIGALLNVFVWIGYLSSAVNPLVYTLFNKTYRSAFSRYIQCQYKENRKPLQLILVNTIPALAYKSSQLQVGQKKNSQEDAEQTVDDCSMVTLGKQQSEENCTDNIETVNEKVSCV
Description: Antagonism of 5HT induced pressor responses was used to assess 5HT2 blockade in vivo. Spontaneously hypertensive rats were anesthetized with sodium pentobarbital (50 mg/kg, i.p.). The right carotid artery and vein were cannulated for pressure recording and drug injection, respectively. The trachea was cannulated, the rat placed on a respirator and ventilated with room air at 50-60 breaths/minute. Rats were pretreated with prazosin hydrochloride (1 mg/kg, i.v., blous) and pentolinium tartrate (5 mg/kg, i.v., bolus). After 10 minutes equilibration, the rat was challenged with 5HT (100 μg/kg) which elevates mean arterial pressure (MAP) 60-100 mmHg; non-responsive rats were discarded.
After a baseline had been reestablished, bolus injections of 5HT (100 μg/kg, i.v.) were given and the MAP responses were evaluated both pre- and post-drug administration. 5HT challenges were repeated 10 minutes after each dose of antagonist. Up to three cumulative doses of the antagonist were given to a single animal.

serotonin receptors = experiment: Inhibition of 5-HTP-Induced Head Twitching; format: in vivo; conditions: male CD1 mice; for Inhibit. of 5-HTP-Head Twitch ED50: 5-HTP 160 mg/kg i.v. after one hour
Description: Inhibition of 5-HTP-Induced Head Twitching
This test detects compounds with antagonistic activity of serotonin receptors in vivo, and is a modified procedure of Corne, Pickering and Warner, Brit. J. Pharmacol. 20, 106 (1963). Groups of male CD1 mice were fasted overnight but allowed water ad libitum. They were deprived of water during the course of the experiment. The mice were weighed and treated orally or parenterally with the test compound in a dose volume of 10 ml/kg. Doses of test substance were calculated based upon the active compound. Substances for oral administration were dissolved or suspended in a 0.5% aqueous methylcellulose (15 centipoises) vehicle containing 4 ml of Tween 80/l.
A dose of 160 mg/kg of L-5-hydroxytryptophan (5-HTP) was administered i.v. in a dose volume of 5 ml/kg after one hour. The test mouse was restrained in a rodent restrainer that allowed the tail to extend out the back. The tail was then placed in tepid (but not scalding) water for approximately 10 seconds to soften the skin and dilate the tail vein. A 1 ml syringe and 25 gauge (5/8 inch) needle was used to administer the 5-HTP solution into one of the lateral tail veins.
A timer was started after dosing with 5-HTP to the first animal of the test group. […] A head twitch involves the head, neck and ears and has the appearance of an exaggerated pinal reflex. The number of head twitches for each individual vehicle-treated mouse were recorded to establish a historical baseline.
The active compounds in the test block the twitch response (the response rated all or none).

[3] = system: alpha1 adrenergic receptor; experiment: Alpha1 Blockade in vivo (inhibition of phenylephrine pressor response); parameters: species or system spontaneously hypertensive rats (SHR); conditions: anesthetized, vagotomized SHR; i.v.
Description: The potency of these compounds as alpha1 adrenergic antagonists was determined using the following procedure: adult male spontaneously hypertensive rats (SHR) were anesthetized and bilaterally vagotomized. A carotid artery and jugular vein were cannulated for monitoring mean arterial blood pressure and drug administration, respectively. The percent inhibition of alpha1 adrenergic receptor activation was quantified by measuring pressor responses to phenylephrine before and after antagonist treatment. […] Compounds were tested to the limits of their solubility for intravenous administration.

[4] = system: serotonin-induced platelet aggregation; experiment: Platelet Aggregation Assay (serotonin-induced); format: cell-based; conditions: human plasma, serotonin 5 μM
Description: Platelet Aggegation Assay
Human blood was collected into tubes containing sodium citrate. The plasma was separated by centrifugation and was used as the source of platelets. Serotonin (5 μM) was used as the agonist to induce platelet aggregation. A control aggregation curve (as measured by the decrease in absorbance in transmitted light) was obtained in the presence of serotonin and in the absence of test compound. The test compound was added to an identical sample in a cuvette for one minute before addition of serotonin to yield the experimental curve.

5HT1A receptor = biological target: T2, 5HT1A receptor (Rattus norvegicus, UniProt P19327); experiment: Brain Serotonin (5HT1A) radioreceptor Assay (3H-8-OH DPAT displacement, rat frontal cortex membranes); format: binding; conditions: for inhibition at 1 µM: read-out: Brain 5-HT1 Receptor % displaced (% inhibition)
T2 construct: Membrane fragments were prepared from prefrontal cortex; from tissue; host or cells: prefrontal/frontal cortex of female rats (about 150 g), membrane fragments
T2 sequence (P19327 1-422): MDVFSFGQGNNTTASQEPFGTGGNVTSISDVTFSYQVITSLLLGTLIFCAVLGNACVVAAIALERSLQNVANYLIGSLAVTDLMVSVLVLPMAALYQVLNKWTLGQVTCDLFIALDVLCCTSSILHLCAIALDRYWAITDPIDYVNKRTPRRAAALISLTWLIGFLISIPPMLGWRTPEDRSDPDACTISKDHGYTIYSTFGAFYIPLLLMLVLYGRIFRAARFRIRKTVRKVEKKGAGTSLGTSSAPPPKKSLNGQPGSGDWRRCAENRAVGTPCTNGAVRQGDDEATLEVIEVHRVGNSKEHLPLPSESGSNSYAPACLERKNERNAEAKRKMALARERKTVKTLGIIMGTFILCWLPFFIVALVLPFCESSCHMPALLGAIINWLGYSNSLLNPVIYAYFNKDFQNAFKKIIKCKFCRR
Description: Brain Serotonin (5HT1A) radioreceptor Assay
The text objects of this procedure were rat frontal cortex membranes. Membrane fragments were prepared from prefrontal cortex disected from brains obtained from female rats (≈150 g). The 5HT1A sites were labeled with ^3 H-8-OH dipropylaminotetralin (8-OH-DPAT). Membrane fragments, ^3 H-8-OH DPAT, TRIS buffer (pH 7.4) and unlabeled compound were incubated for 10 minutes at 37° C. and then for 10 minutes at 4° C. Separation of bound from unbound ^3 H-8-OH DPAT was performed by vacuum filtration on a glass fiber disc. The ability of a compound to compete with ^3 H-8-OH DPAT for binding sites is a measure of the affinity of the compound for the 5HT1A receptor. Specific binding was determined by the difference between total counts bound and the counts bound in the presence of […] 5-hydroxytryptamine.

5HT2 [5] = biological target: T1, 5HT2; experiment: Brain Serotonin (5-HT2) Radioreceptor Assay (3H-ketanserin displacement, rat frontal cortex membranes); format: binding; parameters: dissected from brains obtained from female rats; from tissue; host or cells: frontal cortex of female rats (about 150 g), membrane fragments; conditions: 15 min at 37° C
Description: Brain Serotonin (5-HT2) Radioreceptor Assay
The test objects of this Example were rat frontal cortex membranes. Mebrane fragments were prepared from the frontal cortex dissected from brains obtained from female rats (≈150 g). […] Compound bound to the receptor site was separated from the remaining unbound compound by vacuum filtration. […] Specific binding was determined by the difference between total counts bound and counts bound in the presence of 10^-6 M methysergide.

[6] = system: Spontaneously Hypertensive Rats (SHR); experiment: Antihypertensive Activity in Spontaneously Hypertensive Rats (SHR); format: in vivo, rat; conditions: @ 5 mg/kg p.o., 4 h monitoring
Description: Antihypertensive Activity in Spontaneously Hypertensive Rats (SHR)
Antihypertensive activity was assessed using the following procedure. Adult male SHR were surgically prepared with arterial cannuli under light ether anesthesia and given 60-90 minute post-surgical recovery. Mean arterial pressure (MAP) was continuously monitored via the arterial line. After baseline MAP was recorded, groups of 3-6 SHR received a single dose of drug or vehicle (0.5% methylcellulose) administered by gavage at doses of 1 to 5 mg/kg.MAP was monitored for four hours post-dosing.
Maximal changes in MAP were reported.

SMILES	IC (10-fold shift) [1] [nM]	5-HT-Induced Pressor Response ED50 (5HT2 [2]) [mg/kg]	Inhibit. of 5-HTP-Head Twitch ED50 (serotonin receptors)	Phenylephrine-Induced Pressor Response ED50 [3] [mg/kg]	IC50 [4] [nM]	IC (10-fold shift) ([1]; Oryctolagus cuniculus, 10 min) [µM]	ED50 (5HT2 [2]) [mg/kg]	IC50 (5HT1A receptor; rat frontal cortex membranes, 3H-8-OH DPAT, pH 7.4, read-out: Brain 5-HT1 Receptor IC50) [nM]	IC50 (5HT2 [5]) [nM]	IC50 ([4]; Platelet) [nM]	inhibition at 1 µM (5HT1A receptor; 3H-8-OH DPAT) [%]	Antihypertensive Activity, p.o., % AMAP (maximal change in mean arterial pressure) [6] [%]	IC50 (5HT1A receptor) [nM]	Inhibit. of 5-HTP-Head Twitch (result in words) (serotonin receptors; @ 10 (mg/kg, p.o.))
Cc1nc2sccn2c(=O)c1CCN1CCC(=C(c2ccc(F)cc2)c2ccc(F)cc2)CC1 [Ritanserin, reference compound]	1.0	0.008	0.32 mg/kg, p.o.	5.36	1200									
O=C(c1ccc(F)cc1)C1CCN(CCn2c(=O)[nH]c3cscc3c2=O)CC1 [Example 10, 3-[2-[4-(4-Fluorobenzoyl)piperidin-1-yl]ethyl]thieno[3,4-d]pyrimidine-2,4-dione]			0.63 mg/kg, p.o.	< 10		0.00524	0.888	12000	0.33	20				
O=c1[nH]c2sccc2c(=O)n1CCN1CCC(=C(c2ccc(F)cc2)c2ccc(F)cc2)CC1 [Example 6, 3-[2-[4-[Bis(4-fluorophenyl)methylene]piperidin-1-yl]ethyl]thieno[2,3-d]pyrimidine-2,4-dione]				> 3		0.00899	0.23		0.8	4500	24	-13		
CC(=O)n1c(=O)n(CCN2CCC(C(=O)c3ccc(F)cc3)CC2)c(=O)c2cscc21 [Example 11, 1-Acetyl-3-[2-[4-(4-fluorobenzoyl)piperidin-1-yl]ethyl]thieno[3,4-d]pyrimidine-2,4-dione]				10.0			0.029		12.5	90	0			
O=C(c1ccc(F)cc1)C1CCN(CCn2c(=O)[nH]c3ccccc3c2=O)CC1 [Ketanserin, reference compound]		0.013	0.67 mg/kg, p.o.	1.08						32		-33	24500	
O=c1[nH]c2cocc2c(=O)n1CCN1CCC(=C(c2ccc(F)cc2)c2ccc(F)cc2)CC1 [Example 9, 3-[2-[4-[Bis(4-fluorophenyl)methylene]piperidin-1-yl]ethyl]furo[3,4-d]pyrimidine-2,4-dione]				> 10		0.01	0.02		4.2	6250	12			Inact.
O=c1[nH]c2ccsc2c(=O)n1CCN1CCC(=C(c2ccc(F)cc2)c2ccc(F)cc2)CC1 [Example 5, 3-[2-[4-[Bis(4-fluorophenyl)methylene]piperidin-1-yl]ethyl]thieno[3,2-d]pyrimidine-2,4-dione]			1.78 mg/kg, p.o.	> 10		0.1	0.017		7	1800	3			
O=c1[nH]c2cscc2c(=O)n1CCN1CCC(=C(c2ccc(F)cc2)c2ccc(F)cc2)CC1 [Example 4, 3-[2-[4-[Bis(4-fluorophenyl)methylene]piperidin-1-yl]ethyl]thieno[3,4-d]pyrimidine-2,4-dione]			≈ 10 mg/kg, p.o.	> 10		0.0165	0.16		2.8	5300	20			
Cn1c(=O)n(CCN2CCC(C(=O)c3ccc(F)cc3)CC2)c(=O)c2cscc21 [Example 14, 3-[2-[4-(4-Fluorobenzoyl)piperidin-1-yl]ethyl]-1-methylthieno[3,4-d]pyrimidine-2,4-dione]			2.96 mg/kg, p.o.	< 10			0.018		7	40	31			

— patent US4835157A, “Thieno- and furopyrimidine-2,4-dione piperidine derivatives as serotonin antagonists and alpha adrenergic blocking agents” (Ortho Pharmaceutical Corporation, priority 1988, dated 1989)
